Assay results taken from patent US7829560B2, “1,4-disubstituted naphthalenes as inhibitors of P38 MAP kinase” (Arqule, Inc., priority 2004, dated 2010).

Experiments:
p38α = molecular target: T1, p38α (Homo sapiens, UniProt Q16539); assay: p38 MAP Kinase assay: inhibition of ATF2 phosphorylation, ELISA; type: biochemical; conditions: for IC50: ATF2 phosphorylation, read-out: [ENZ] P38 ALPHA, IC50, ELISA
T1 construct: p38 MAP Kinases are recombinant human full-length proteins with an amino-terminal GST fusion; GST (N); purchased Upstate Biotechnology Inc; host or cells: E. coli
Outline: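 GST-tagged full-length human p38 MAP kinase with GST-ATF2 (aa 19–96; 1.25 μM) and 40 μM ATP in HEPES pH 7.5 buffer, without (Method I) or with (Method II) 1% human serum albumin. Compound pre-incubated 15 min at room temperature; reaction 30 min at 37 °C; ATF2 Thr69 phosphorylation measured by ELISA (A450).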

[1] = tested on: TNFα release from THP-1 cells; assay: Inhibition of TNFα release from LPS-stimulated THP-1 cells, ELISA; type: cell-based; conditions: Homo sapiens, THP-1, THP-1 cells, read-out: [CELL] THP-1, IC50, TNF ALPHA, ELISA
Outline: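 Human THP-1 monocytes, 10^6 cells/ml in RPMI with 10% FBS, no serum or 1% HSA, preincubated 30 min at 37 °C with compound (≤0.5% DMSO), then stimulated with 10 μg/ml LPS for 18 h. Supernatant TNFα measured by ELISA; IC50 from non-linear dose-response regression.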

T1 sequence (Q16539 whole entry, the tested form may be a part): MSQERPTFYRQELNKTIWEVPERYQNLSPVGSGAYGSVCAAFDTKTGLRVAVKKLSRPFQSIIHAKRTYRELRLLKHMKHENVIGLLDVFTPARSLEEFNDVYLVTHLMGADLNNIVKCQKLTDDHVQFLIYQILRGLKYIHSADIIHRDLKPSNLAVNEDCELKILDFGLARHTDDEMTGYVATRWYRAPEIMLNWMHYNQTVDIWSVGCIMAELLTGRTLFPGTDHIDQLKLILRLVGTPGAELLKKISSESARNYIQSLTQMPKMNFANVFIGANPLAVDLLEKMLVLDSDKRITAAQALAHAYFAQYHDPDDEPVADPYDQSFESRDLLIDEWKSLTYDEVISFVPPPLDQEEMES

| Structure (SMILES) | IC50 (p38α) [nM] | melting point [°C] | IC50 [1] [nM] | inhibition at 10 µM (p38α; 10 uM, substrate ATF2, read-out: [ENZ] P38 ALPHA, PCT INH, ELISA (10 uM;ATF2) (Percent)) [%] |
| --- | --- | --- | --- | --- |
| CSc1nccc(Oc2ccc(NC(=O)c3cc(F)cc(OC4CCCC4)c3)c3ccccc23)n1 [Compound B304, 3-(Cyclopentyloxy)-5-fluoro-N-(4-{[2-(methylthio)pyrimidin-4-yl]oxy}-1-naphthyl)benzamide] | 225 | 115 to 116 | 239 |  |
| CCC1CCC(Oc2cc(F)cc(C(=O)Nc3ccc(OCCN4CCOCC4)c4ccccc34)c2)CC1 (stereo not shown) [Compound B194, 3-[(4-Ethylcyclohexyl)oxy]-5-fluoro-N-[4-(2-morpholin-4-ylethoxy)-1-naphthyl]benzamide] | 9280 | 102 to 105 | > 10000 |  |
| CSc1nccc(Oc2ccc(NC(=O)c3cc(F)cc(N4CCC(C)CC4)c3)c3ccccc23)n1 [Compound B247, 3-Fluoro-5-(4-methylpiperidin-1-yl)-N-(4-{[2-(methylthio)pyrimidin-4-yl]oxy}-1-naphthyl)benzamide] | 587 | 142 to 143 | 780 |  |
| O=C(Nc1ccc(Oc2ccnc(N3CCC(O)CC3)n2)c2ccccc12)c1cc(F)cc(N2CCCCC2)c1 [Compound B387, 3-Fluoro-N-(4-{[2-(4-hydroxypiperidin-1-yl)pyrimidin-4-yl]oxy}-1-naphthyl)-5-piperidin-1-ylbenzamide] | 5.7 | 182 to 184 | 309 |  |
| COCCNc1nccc(Oc2ccc(NC(=O)c3cc(F)cc(N4CCCCC4)c3)c3ccccc23)n1 [Compound B374, 3-Fluoro-N-[4-({2-[(2-methoxyethyl)amino]pyrimidin-4-yl}oxy)-1-naphthyl]-5-piperidin-1-ylbenzamide] | 4.3 | 87 to 88 | 147 |  |
| O=C(Nc1ccc(Oc2ccnc(NC3CCS(=O)(=O)C3)n2)c2ccccc12)c1cc(F)cc(N2CCOCC2)c1 (stereo not shown) [Compound B347, N-[4-({2-[(1,1-Dioxidotetrahydro-3-thienyl)amino]pyrimidin-4-yl}oxy)-1-naphthyl]-3-fluoro-5-morpholin-4-ylbenzamide] | 13.9 | 150 to 151 | 42.2 |  |
| CC(=O)N1CCN(CCCOc2ccc(NC(=O)c3cc(F)cc(N4CCCCC4)c3)c3ccccc23)CC1 [Compound B165, N-{4-[3-(4-Acetyl-piperazin-1-yl)-propoxy]-naphthalen-1-yl}-3-fluoro-5-piperidin-1-yl-benzamide] | 997 | 210 to 211 | > 10000 | 84 |
| N#CNc1nccc(Oc2ccc(NC(=O)c3cc(F)cc(N4CCCCC4)c3)c3ccccc23)n1 [Compound B380, N-(4-{[2-(Cyanoamino)pyrimidin-4-yl]oxy}-1-naphthyl)-3-fluoro-5-piperidin-1-ylbenzamide] | 6.6 | 160 to 162 | > 1000 |  |
| O=C(Nc1ccc(Oc2ccnc(NCCN3CCCC3)n2)c2ccccc12)c1cc(F)cc(N2CCOCC2)c1 [Compound B338, 3-Fluoro-5-morpholin-4-yl-N-[4-({2-[(2-pyrrolidin-1-ylethyl)amino]pyrimidin-4-yl}oxy)-1-naphthyl]benzamide] | 17.1 | 95 to 97 | 60.9 |  |
| CC(C)(C)OC(=O)NC1CCN(c2nccc(Oc3ccc(NC(=O)c4cc(F)cc(N5CCCCC5)c4)c4ccccc34)n2)CC1 [Compound B410, tert-Butyl{1-[4-({4-[(3-fluoro-5-piperidin-1-ylbenzoyl)amino]-1-naphthyl}oxy)pyrimidin-2-yl]piperidin-4-yl}carbamate] | 90.9 | 211 to 212 | > 1000 |  |
| C#CCN(C)c1nccc(Oc2ccc(NC(=O)c3cc(F)cc(N4CCCCC4)c3)c3ccccc23)n1 [Compound B407, 3-Fluoro-N-[4-({2-[methyl(prop-2-yn-1-yl)amino]pyrimidin-4-yl}oxy)-1-naphthyl]-5-piperidin-1-ylbenzamide] | 56.1 | 116 to 117 | 700 |  |
| O=C(Nc1ccc(Oc2ccnc(NCc3ccccc3)n2)c2ccccc12)c1cc(F)cc(N2CCOCC2)c1 [Compound B249, N-(4-{[2-(Benzylamino)pyrimidin-4-yl]oxy}-1-naphthyl)-3-fluoro-5-morpholin-4-ylbenzamide] | 13.9 | 121 to 123 | 12.4 |  |
| O=C(Nc1ccc(Oc2ccnc(-n3ccnc3)n2)c2ccccc12)c1cc(F)cc(N2CCOCC2)c1 [Compound B325, 3-Fluoro-N-(4-{[2-(1H-imidazol-1-yl)pyrimidin-4-yl]oxy}-1-naphthyl)-5-morpholin-4-ylbenzamide] | 34.4 | 153 to 154 | 247 |  |
| O=C1CN(CCCOc2ccc(NC(=O)c3cc(F)cc(N4CCCCC4)c3)c3ccccc23)CCN1 [Compound B175, 3-Fluoro-N-{4-[3-(3-oxo-piperazin-1-yl)-propoxy]-naphthalen-1-yl}-5-piperidin-1-yl-benzamide] | 1110 | 90 to 92 | > 10000 |  |
| CC(C)N(C)c1nccc(Oc2ccc(NC(=O)c3cc(F)cc(N4CCOCC4)c3)c3ccccc23)n1 [Compound B322, 3-Fluoro-N-[4-({2-[isopropyl(methyl)amino]pyrimidin-4-yl}oxy)-1-naphthyl]-5-morpholin-4-ylbenzamide] | 44.6 | 94 to 96 | 607 |  |
| C[C@@H]1CN(c2nccc(Oc3ccc(NC(=O)c4cc(F)cc(N5CCCCC5)c4)c4ccccc34)n2)C[C@H](C)O1 [Compound B416, N-[4-({2-[(2R,6S)-2,6-Dimethylmorpholin-4-yl]pyrimidin-4-yl}oxy)-1-naphthyl]-3-fluoro-5-piperidin-1-ylbenzamide] | 50.2 | 174 to 176 | 472 |  |
| O=C(Nc1ccc(OCCN2CCOCC2)c2ccccc12)c1cc(F)cc(OC2CCCC2)c1 [Compound B225, 3-(Cyclopentyloxy)-5-fluoro-N-[4-(2-morpholin-4-ylethoxy)-1-naphthyl]benzamide] | 439 | 117 to 119 | 4090 |  |
| O=C(Nc1ccc(Oc2ccnc(NC3CCCCC3)n2)c2ccccc12)c1cc(F)cc(N2CCCCC2)c1 [Compound B371, N-(4-{[2-(cyclohexylamino)pyrimidin-4-yl]oxy}-1-naphthyl)-3-fluoro-5-piperidin-1-ylbenzamide] | 26.4 | 118 to 120 | 37.1 |  |
| CN(C)[C@@H]1CCN(c2nccc(Oc3ccc(NC(=O)c4cc(F)cc(N5CCOCC5)c4)c4ccccc34)n2)C1 [Compound B342, N-[4-({2-[(3R)-3-(dimethylamino)pyrrolidin-1-yl]pyrimidin-4-yl}oxy)-1-naphthyl]-3-fluoro-5-morpholin-4-ylbenzamide] | 22.3 | 115 to 117 | 61.5 |  |
| O=C(Nc1ccc(OCCCN2CCCC2=O)c2ccccc12)c1cc(F)cc(N2CCCCC2)c1 [Compound B182, 3-Fluoro-N-{4-[3-(2-oxopyrrolidin-1-yl)propoxy]-1-naphthyl}-5-piperidin-1-ylbenzamide] | 587 | 88 to 89 | > 10000 |  |
| CS(=O)(=O)CCNc1nccc(Oc2ccc(NC(=O)c3cc(F)cc(N4CCCCC4)c3)c3ccccc23)n1 [Compound B422, 3-Fluoro-N-{4-[(2-{[2-(methylsulfonyl)ethyl]amino}pyrimidin-4-yl)oxy]-1-naphthyl}-5-piperidin-1-ylbenzamide] | 1.6 | 102 to 104 | 63.2 |  |
| O=C1CN(c2nccc(Oc3ccc(NC(=O)c4cc(F)cc(N5CCOCC5)c4)c4ccccc34)n2)CCN1 [Compound B368, 3-Fluoro-5-morpholin-4-yl-N-(4-{[2-(3-oxopiperazin-1-yl)pyrimidin-4-yl]oxy}-1-naphthyl)benzamide] | 19.7 | 108 to 110 | 141 |  |
| O=C(Nc1ccc(OCCN2CCOCC2)c2ccccc12)c1cc(F)cc(OC2CCCCC2)c1 [Compound B195, 3-(Cyclohexyloxy)-5-fluoro-N-[4-(2-morpholin-4-ylethoxy)-1-naphthyl]benzamide] | 413 | 116 to 118 | > 10000 |  |
| O=C(Nc1ccc(Oc2ccnc(N3CCCC3)n2)c2ccccc12)c1cc(F)cc(N2CCOCC2)c1 [Compound B334, 3-Fluoro-5-morpholin-4-yl-N-{4-[(2-pyrrolidin-1-ylpyrimidin-4-yl)oxy]-1-naphthyl}benzamide] | 8.2 | 205 to 207 | 276 |  |
| O=C(Nc1ccc(Oc2ccnc(NC3CCC3)n2)c2ccccc12)c1cc(F)cc(N2CCCCC2)c1 [Compound B383, N-(4-{[2-(Cyclobutylamino)pyrimidin-4-yl]oxy}-1-naphthyl)-3-fluoro-5-piperidin-1-ylbenzamide] | 11.4 | 112 to 114 | 311 |  |
| O=C(Nc1ccc(Oc2ccnc(NC3CC3)n2)c2ccccc12)c1cc(F)cc(N2CCCCC2)c1 [Compound B382, N-(4-{[2-(Cyclopropylamino)pyrimidin-4-yl]oxy}-1-naphthyl)-3-fluoro-5-piperidin-1-ylbenzamide] | 6.9 | 157 to 158 | 185 |  |
